Experimental findings from ChEMBL document CHEMBL1955812, “New chemotypes acting as isozyme-selective carbonic anhydrase inhibitors with low affinity for the offtarget cytosolic isoform II” (Bioorg Med Chem Lett, 2012) are described below.

Assay [1] deals with T1, Carbonic anhydrase 3 (Homo sapiens, UniProt P07451). The assay is described as follows: Inhibition of human recombinant carbonic anhydrase 3 preincubated for 15 mins to 72 hrs measured after 15 mins by stopped flow CO2 hydration method.
T1 sequence (P07451 whole entry): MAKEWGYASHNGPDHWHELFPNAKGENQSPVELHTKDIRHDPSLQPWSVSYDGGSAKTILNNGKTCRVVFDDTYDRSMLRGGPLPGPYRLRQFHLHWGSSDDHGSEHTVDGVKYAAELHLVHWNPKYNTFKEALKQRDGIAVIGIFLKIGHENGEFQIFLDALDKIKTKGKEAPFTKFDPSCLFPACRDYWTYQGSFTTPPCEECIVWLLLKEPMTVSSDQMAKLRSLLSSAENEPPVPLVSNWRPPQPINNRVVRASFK
Assay [2] deals with T2, Carbonic anhydrase 4 (Homo sapiens, UniProt P22748). The assay is described as follows: Inhibition of human recombinant carbonic anhydrase 4 preincubated for 15 mins to 72 hrs measured after 6 hrs by stopped flow CO2 hydration method.
T2 sequence (P22748 whole entry): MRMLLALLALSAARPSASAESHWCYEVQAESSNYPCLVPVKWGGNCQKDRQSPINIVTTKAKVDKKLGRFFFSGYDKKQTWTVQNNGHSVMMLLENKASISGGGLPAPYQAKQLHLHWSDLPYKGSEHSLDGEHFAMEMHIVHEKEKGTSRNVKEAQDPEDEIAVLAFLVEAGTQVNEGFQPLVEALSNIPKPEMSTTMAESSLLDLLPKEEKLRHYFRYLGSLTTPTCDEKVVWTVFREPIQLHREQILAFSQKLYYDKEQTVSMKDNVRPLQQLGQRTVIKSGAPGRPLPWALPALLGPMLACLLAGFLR
Assay [3] has as its target T3, Carbonic anhydrase 5B, mitochondrial (Homo sapiens, UniProt Q9Y2D0). The assay is described as follows: Inhibition of human recombinant carbonic anhydrase 5B preincubated for 15 mins to 72 hrs measured after 15 mins by stopped flow CO2 hydration method.
Assay [4] has as its target T4, Carbonic anhydrase 6 (Homo sapiens, UniProt P23280). As to the kind of experiment: Inhibition of human recombinant carbonic anhydrase 6 preincubated for 15 mins to 72 hrs measured after 15 mins by stopped flow CO2 hydration method.
Assay [5] concerns the target T5, Carbonic anhydrase 2 (Homo sapiens, UniProt P00918). The assay is described as follows: Inhibition of human recombinant carbonic anhydrase 2 preincubated for 15 mins to 72 hrs measured after 6 hrs by stopped flow CO2 hydration method.
For assay [6], the target named is T1, Carbonic anhydrase 3. As to the kind of experiment: Inhibition of human recombinant carbonic anhydrase 3 preincubated for 15 mins to 72 hrs measured after 6 hrs by stopped flow CO2 hydration method.
Assay [7] has as its target T6, Carbonic anhydrase 12 (Homo sapiens, UniProt O43570). As to the kind of experiment: Inhibition of human recombinant carbonic anhydrase 12 preincubated for 15 mins to 72 hrs measured after 15 mins by stopped flow CO2 hydration method.
Assay [8] concerns the target T7, Carbonic anhydrase 7 (Homo sapiens, UniProt P43166). As to the kind of experiment: Inhibition of human recombinant carbonic anhydrase 7 preincubated for 15 mins to 72 hrs measured after 6 hrs by stopped flow CO2 hydration method.
Assay [9] addresses T3, Carbonic anhydrase 5B, mitochondrial. The assay is described as follows: Inhibition of human recombinant carbonic anhydrase 5B preincubated for 15 mins to 72 hrs measured after 6 hrs by stopped flow CO2 hydration method.
The target of assay [10] is T8, Carbonic anhydrase 14 (Homo sapiens, UniProt Q9ULX7). As to the kind of experiment: Inhibition of human recombinant carbonic anhydrase 14 preincubated for 15 mins to 72 hrs measured after 6 hrs by stopped flow CO2 hydration method.
T8 sequence (Q9ULX7 whole entry): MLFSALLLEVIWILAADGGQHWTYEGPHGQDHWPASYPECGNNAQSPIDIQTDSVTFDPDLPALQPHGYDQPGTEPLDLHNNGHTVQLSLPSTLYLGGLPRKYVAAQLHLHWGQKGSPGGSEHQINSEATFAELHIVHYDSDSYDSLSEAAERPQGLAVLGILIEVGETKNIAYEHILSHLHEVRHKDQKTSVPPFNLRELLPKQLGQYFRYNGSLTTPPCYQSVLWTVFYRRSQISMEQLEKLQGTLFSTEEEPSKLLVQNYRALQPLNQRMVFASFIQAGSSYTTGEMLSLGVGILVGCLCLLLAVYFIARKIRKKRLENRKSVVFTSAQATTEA
The target of assay [11] is T9, Carbonic anhydrase 1 (Homo sapiens, UniProt P00915). The assay is described as follows: Inhibition of human recombinant carbonic anhydrase 1 preincubated for 15 mins to 72 hrs measured after 15 mins by stopped flow CO2 hydration method.
T9 sequence (P00915 whole entry): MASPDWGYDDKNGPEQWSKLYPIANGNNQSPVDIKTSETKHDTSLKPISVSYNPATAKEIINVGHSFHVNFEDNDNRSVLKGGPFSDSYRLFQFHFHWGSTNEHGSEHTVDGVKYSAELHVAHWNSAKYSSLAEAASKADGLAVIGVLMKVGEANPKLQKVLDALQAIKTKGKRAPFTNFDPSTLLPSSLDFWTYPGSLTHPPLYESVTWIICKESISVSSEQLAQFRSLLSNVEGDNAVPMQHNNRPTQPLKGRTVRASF
Assay [12] concerns the target T8, Carbonic anhydrase 14. The assay is described as follows: Inhibition of human recombinant carbonic anhydrase 14 preincubated for 15 mins to 72 hrs measured after 15 mins by stopped flow CO2 hydration method.
For assay [13], the target named is T10, Carbonic anhydrase 9 (Homo sapiens, UniProt Q16790). The assay is described as follows: Inhibition of human recombinant carbonic anhydrase 9 preincubated for 15 mins to 72 hrs measured after 6 hrs by stopped flow CO2 hydration method.
In assay [14] the target is T6, Carbonic anhydrase 12. As to the kind of experiment: Inhibition of human recombinant carbonic anhydrase 12 preincubated for 15 mins to 72 hrs measured after 6 hrs by stopped flow CO2 hydration method.
Assay [15] concerns the target T11, Carbonic anhydrase 13 (Homo sapiens, UniProt Q8N1Q1). The assay is described as follows: Inhibition of human recombinant carbonic anhydrase 13 preincubated for 15 mins to 72 hrs measured after 15 mins by stopped flow CO2 hydration method.
Assay [16] concerns the target T7, Carbonic anhydrase 7. The assay is described as follows: Inhibition of human recombinant carbonic anhydrase 7 preincubated for 15 mins to 72 hrs measured after 15 mins by stopped flow CO2 hydration method.
In assay [17] the target is T11, Carbonic anhydrase 13. The assay is described as follows: Inhibition of human recombinant carbonic anhydrase 13 preincubated for 15 mins to 72 hrs measured after 6 hrs by stopped flow CO2 hydration method.
Assay [18] deals with T2, Carbonic anhydrase 4. The assay is described as follows: Inhibition of human recombinant carbonic anhydrase 4 preincubated for 15 mins to 72 hrs measured after 15 mins by stopped flow CO2 hydration method.
For assay [19], the target named is T12, Carbonic anhydrase 5A, mitochondrial (Homo sapiens, UniProt P35218). As to the kind of experiment: Inhibition of human recombinant carbonic anhydrase 5A preincubated for 15 mins to 72 hrs measured after 6 hrs by stopped flow CO2 hydration method.
T12 sequence (P35218 whole entry): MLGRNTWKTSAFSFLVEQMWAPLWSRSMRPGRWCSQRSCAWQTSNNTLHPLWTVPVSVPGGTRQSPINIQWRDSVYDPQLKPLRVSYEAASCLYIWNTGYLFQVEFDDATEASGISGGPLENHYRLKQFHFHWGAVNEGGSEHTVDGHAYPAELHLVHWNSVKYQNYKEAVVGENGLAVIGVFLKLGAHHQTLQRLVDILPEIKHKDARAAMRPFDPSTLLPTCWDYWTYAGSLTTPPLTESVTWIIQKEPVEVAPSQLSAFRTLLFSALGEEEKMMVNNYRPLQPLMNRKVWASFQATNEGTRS
The target of assay [20] is T9, Carbonic anhydrase 1. As to the kind of experiment: Inhibition of human recombinant carbonic anhydrase 1 preincubated for 15 mins to 72 hrs measured after 6 hrs by stopped flow CO2 hydration method.
For assay [21], the target named is T5, Carbonic anhydrase 2. The assay is described as follows: Inhibition of human recombinant carbonic anhydrase 2 preincubated for 15 mins to 72 hrs measured after 15 mins by stopped flow CO2 hydration method.
The target in assay [22] is T10, Carbonic anhydrase 9. The assay is described as follows: Inhibition of human recombinant carbonic anhydrase 9 preincubated for 15 mins to 72 hrs measured after 15 mins by stopped flow CO2 hydration method.
In assay [23] the target is T12, Carbonic anhydrase 5A, mitochondrial. As to the kind of experiment: Inhibition of human recombinant carbonic anhydrase 5A preincubated for 15 mins to 72 hrs measured after 15 mins by stopped flow CO2 hydration method.
Assay [24] addresses T4, Carbonic anhydrase 6. As to the kind of experiment: Inhibition of human recombinant carbonic anhydrase 6 preincubated for 15 mins to 72 hrs measured after 6 hrs by stopped flow CO2 hydration method.
Where [25] appears, read: tested as the Zn salt or complex.

T7 sequence (P43166 whole entry): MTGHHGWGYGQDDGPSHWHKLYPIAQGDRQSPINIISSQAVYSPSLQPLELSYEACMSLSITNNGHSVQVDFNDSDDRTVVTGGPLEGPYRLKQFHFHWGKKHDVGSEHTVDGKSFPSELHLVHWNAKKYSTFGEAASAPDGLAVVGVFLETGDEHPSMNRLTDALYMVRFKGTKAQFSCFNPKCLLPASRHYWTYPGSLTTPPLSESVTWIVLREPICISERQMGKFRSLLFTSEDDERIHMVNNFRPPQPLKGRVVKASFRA
T4 sequence (P23280 whole entry): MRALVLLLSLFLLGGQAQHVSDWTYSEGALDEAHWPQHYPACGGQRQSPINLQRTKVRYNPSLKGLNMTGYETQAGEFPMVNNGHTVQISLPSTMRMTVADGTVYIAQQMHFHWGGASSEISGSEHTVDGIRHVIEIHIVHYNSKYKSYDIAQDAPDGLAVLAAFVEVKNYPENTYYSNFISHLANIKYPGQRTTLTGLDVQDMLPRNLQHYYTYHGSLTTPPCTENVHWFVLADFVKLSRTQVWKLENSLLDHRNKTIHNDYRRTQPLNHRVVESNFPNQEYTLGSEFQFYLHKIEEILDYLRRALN
T6 sequence (O43570 whole entry): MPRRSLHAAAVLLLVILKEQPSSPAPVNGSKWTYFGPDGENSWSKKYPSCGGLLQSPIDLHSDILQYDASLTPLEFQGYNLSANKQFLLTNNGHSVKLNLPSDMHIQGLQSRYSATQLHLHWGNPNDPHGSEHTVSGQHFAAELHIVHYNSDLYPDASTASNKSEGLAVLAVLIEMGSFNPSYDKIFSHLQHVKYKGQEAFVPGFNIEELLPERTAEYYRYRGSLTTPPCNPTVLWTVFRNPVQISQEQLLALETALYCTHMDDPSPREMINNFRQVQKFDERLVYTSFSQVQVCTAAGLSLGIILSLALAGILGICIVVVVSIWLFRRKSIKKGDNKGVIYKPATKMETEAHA
T3 sequence (Q9Y2D0 whole entry): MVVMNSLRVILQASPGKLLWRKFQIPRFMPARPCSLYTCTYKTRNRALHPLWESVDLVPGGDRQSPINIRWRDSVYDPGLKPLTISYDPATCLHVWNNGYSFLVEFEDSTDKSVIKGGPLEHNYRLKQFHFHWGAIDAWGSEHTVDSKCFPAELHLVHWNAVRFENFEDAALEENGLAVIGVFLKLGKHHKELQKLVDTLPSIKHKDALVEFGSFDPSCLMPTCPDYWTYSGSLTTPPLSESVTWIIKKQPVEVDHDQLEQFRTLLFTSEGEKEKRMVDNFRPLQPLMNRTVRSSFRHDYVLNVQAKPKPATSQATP
T11 sequence (Q8N1Q1 whole entry): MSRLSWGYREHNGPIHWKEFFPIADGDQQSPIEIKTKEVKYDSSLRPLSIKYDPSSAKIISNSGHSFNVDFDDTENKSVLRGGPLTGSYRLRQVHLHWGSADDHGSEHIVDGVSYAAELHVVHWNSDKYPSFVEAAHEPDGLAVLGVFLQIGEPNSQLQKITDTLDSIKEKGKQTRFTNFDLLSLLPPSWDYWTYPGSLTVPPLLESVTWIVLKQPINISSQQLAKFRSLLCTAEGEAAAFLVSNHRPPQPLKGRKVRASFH

Usually Ki stands for a measure of affinity in units of concentration, obtained from inhibition or displacement. Regarding `Oc1ccc2ccccc2n1`, the Ki on Carbonic anhydrase 3 [1] is 0.57 µM; on Carbonic anhydrase 4 [2], 0.36 µM; in assay [3], 0.75 µM; on Carbonic anhydrase 6 [4], 0.033 µM; at Carbonic anhydrase 2 [5], more than 200 µM; on Carbonic anhydrase 3 [6], 0.57 µM. Besides, the Ki on Carbonic anhydrase 12 [7] is 0.093 µM; on Carbonic anhydrase 7 [8], 0.42 µM; in assay [9], 0.75 µM; on Carbonic anhydrase 14 [10], 0.036 µM; on Carbonic anhydrase 1 [11], 6.23 µM; at Carbonic anhydrase 14 [12], 0.036 µM. The Ki came out at 0.082 µM at Carbonic anhydrase 9 [13]; 0.093 µM on Carbonic anhydrase 12 [14]; 0.065 µM on Carbonic anhydrase 13 [15]; 0.42 µM at Carbonic anhydrase 7 [16]; 0.065 µM on Carbonic anhydrase 13 [17]; 0.36 µM on Carbonic anhydrase 4 [18]. For the same molecule, the Ki is 0.41 µM in [19]; 6.23 µM at Carbonic anhydrase 1 [20]; more than 200 µM on Carbonic anhydrase 2 [21]; 0.082 µM on Carbonic anhydrase 9 [22]; 0.41 µM in assay [23]; 0.033 µM at Carbonic anhydrase 6 [24].
As to `Cc1cc(C)o/c(=N/O)c1`, the Ki was more than 200 µM at Carbonic anhydrase 2 [5]; 0.27 µM on Carbonic anhydrase 7 [8]; 0.016 µM on Carbonic anhydrase 9 [13]; 0.064 µM on Carbonic anhydrase 12 [14]; 0.009 µM at Carbonic anhydrase 1 [20].
As for `O/N=c1/ccc2ccccc2o1`, the Ki at Carbonic anhydrase 2 [5] is more than 200 µM; on Carbonic anhydrase 7 [8], 0.84 µM; at Carbonic anhydrase 9 [13], 0.058 µM; at Carbonic anhydrase 12 [14] it was 0.054 µM; on Carbonic anhydrase 1 [20], 0.009 µM.
On to `CCOP(=S)(OCC)Oc1ccc2c(C)c(Cl)c(=O)oc2c1` [COUMAPHOS], for which the Ki is 5.48 µM at Carbonic anhydrase 4 [2]; more than 200 µM at Carbonic anhydrase 2 [5]; 4.62 µM at Carbonic anhydrase 3 [6]; 4.68 µM at Carbonic anhydrase 7 [8]; 3.41 µM in [9]; 4.14 µM on Carbonic anhydrase 14 [10]. For the same molecule, the Ki worked out at 6.41 µM on Carbonic anhydrase 9 [13]; 9.52 µM on Carbonic anhydrase 12 [14]; 4.23 µM at Carbonic anhydrase 13 [17]; 5.09 µM in assay [19]; 61.7 µM on Carbonic anhydrase 1 [20]; 2.23 µM at Carbonic anhydrase 6 [24].
As to `O=c1ccc2ccccc2o1` [COUMARIN], the Ki on Carbonic anhydrase 4 [2] is 62.3 µM; at Carbonic anhydrase 3 [6], more than 200 µM; on Carbonic anhydrase 7 [8] it was more than 200 µM; at Carbonic anhydrase 13 [17] it was more than 200 µM.
Regarding `[O-][n+]1ccccc1S` [PYRITHIONE ZINC], the Ki was 1.62 µM on Carbonic anhydrase 3 [1] (setting [25]); 6.13 µM on Carbonic anhydrase 4 [2] (setting [25]); 3.55 µM in assay [3] (setting [25]); 2.41 µM on Carbonic anhydrase 6 [4] (setting [25]); more than 200 µM at Carbonic anhydrase 2 [5] (setting [25]); 1.62 µM at Carbonic anhydrase 3 [6] (setting [25]). Further, the Ki is 5.4 µM on Carbonic anhydrase 12 [7] (setting [25]); 7.76 µM at Carbonic anhydrase 7 [8] (setting [25]); 3.55 µM in [9] (setting [25]); 2.91 µM on Carbonic anhydrase 14 [10] (setting [25]); more than 200 µM at Carbonic anhydrase 1 [11] (setting [25]); 2.91 µM on Carbonic anhydrase 14 [12] (setting [25]). Also, the Ki at Carbonic anhydrase 9 [13] (setting [25]) worked out at 1.72 µM; on Carbonic anhydrase 12 [14] (setting [25]), 5.4 µM; on Carbonic anhydrase 13 [15] (setting [25]), 4.15 µM; on Carbonic anhydrase 7 [16] (setting [25]), 7.76 µM; on Carbonic anhydrase 13 [17] (setting [25]) it was 4.15 µM; on Carbonic anhydrase 4 [18] (setting [25]) it was 6.13 µM. For the same molecule, the Ki in [19] (setting [25]) was 5.12 µM; at Carbonic anhydrase 1 [20] (setting [25]), more than 200 µM; on Carbonic anhydrase 2 [21] (setting [25]), more than 200 µM; on Carbonic anhydrase 9 [22] (setting [25]) it was 1.72 µM; in assay [23] (setting [25]) it was 5.12 µM; at Carbonic anhydrase 6 [24] (setting [25]), 2.41 µM.
`O=C(S)c1ccccc1` [THIOBENZOIC ACID]: the Ki on Carbonic anhydrase 2 [5] was 51 µM; at Carbonic anhydrase 12 [7] it was 2.77 µM; at Carbonic anhydrase 7 [8] it was 5.74 µM; at Carbonic anhydrase 1 [11], 10.8 µM; on Carbonic anhydrase 9 [13], 5.64 µM; at Carbonic anhydrase 12 [14], 2.77 µM. Further, the Ki on Carbonic anhydrase 7 [16] amounted to 5.74 µM; at Carbonic anhydrase 1 [20], 10.8 µM; on Carbonic anhydrase 2 [21], 51 µM; on Carbonic anhydrase 9 [22] it was 5.64 µM.
